Patent EP0801066A1, “Heterocyclic substituted benzothiophenes and pharmaceutical compositions” (ELI LILLY AND COMPANY, priority 1996, dated 1997)
pIC50: −log10 of the molar value. Marks after values point to notes of the source that are not given here.

Experiments:
[1] = system: Serum cholesterol; assay: Serum cholesterol analysis in ovariectomized rats (hyperlipidemia); format: in vivo, Sprague Dawley rats; details: oral; for Decrease in Cholesterol (%): daily for 4 days, serum cholesterol versus ovariectomized controls
Text: (§1) Seventy-five day old female Sprague Dawley rats (weight range of 200 to 225g) are obtained from Charles River Laboratories (Portage, MI). The animals are either bilaterally ovariectomized (OVX) or exposed to a Sham surgical procedure at Charles River Laboratories, and then shipped after one week. Upon arrival, they are housed in metal hanging cages in groups of 3 or 4 per cage and have ad libitum access to food (calcium content approximately 0.5%) and water for one week. Room temperature is maintained at 22.2° ± 1.7° C with a minimum relative humidity of 40%. The photoperiod in the room is 12 hours light and 12 hours dark.
(§2) Dosing Regimen Tissue Collection. After a one week acclimation period (therefore, two weeks post-OVX) daily dosing with test compound is initiated. 17α-ethynyl estradiol or the test compound is given orally, unless otherwise stated, as a suspension in 1% carboxymethylcellulose or dissolved in 20% cyclodextrin. Animals were dosed daily for 4 days. Following the dosing regimen, animals are weighed and anesthetized with a ketamine: Xylazine (2:1, V:V) mixture and a blood sample is collected by cardiac puncture. The animals are then sacrificed by asphyxiation with CO2, the uterus is removed through a midline incision, and a wet uterine weight is determined.
Cholesterol Analysis. Blood samples are allowed to clot at room temperature for 2 hours, and serum is obtained following centrifugation for 10 minutes at 3000 rpm. Serum cholesterol is determined using a Boehringer Mannheim Diagnostics high performance cholesterol assay. Briefly the cholesterol is oxidized to cholest-4-en-3-one and hydrogen peroxide. The hydrogen peroxide is then reacted with phenol and 4-aminophenazone in the presence of peroxidase to produce a p-quinone imine dye, which is read spectrophotemetrically at 500 nm. Cholesterol concentration is then calculated against a standard curve. The entire assay is automated using a Biomek Automated Workstation.

[2] = system: Uterine Eosinophil Peroxidase (EPO); assay: Uterine Eosinophil Peroxidase (EPO) Assay in ovariectomized rats; format: in vivo, Sprague Dawley rats; details: for Serum Eosinophil (Vmax): oral, daily for 4 days, eosinophil peroxidase Vmax
Text: as §1, §2
Uterine Eosinophil Peroxidase (EPO) Assay. Uteri are kept at 4° C until time of enzymatic analysis. The uteri are then homogenized in 50 volumes of 50 mM Tris buffer (pH - 8.0) containing 0.005% Triton X-100. Upon addition of 0.01% hydrogen peroxide and 10 mM O-phenylenediamine (final concentrations) in Tris buffer, increase in absorbance is monitored for one minute at 450 nm. The presence of eosonophils in the uterus is an indication of estrogenic activity of a compound. The maximal velocity of a 15 second interval is determined over the initial, linear portion of the reaction curve.

[3] = system: MCF-7 breast adenocarcinoma cells; assay: MCF-7 Proliferation Assay (tritiated thymidine incorporation); format: cell-based; details: Homo sapiens, MCF7; 48 hours with drug, 4 hours tritiated thymidine pulse; read-out: IC50, inhibition of the growth of MCF-7 cells
Experimental: MCF-7 breast adenocarcinoma cells (ATCC HTB 22) are maintained in MEM (minimal essential medium, phenol red-free, Sigma, St. Louis, MO) supplemented with 10% fetal bovine serum (FBS) (V/V), L-glutamine (2 mM), sodium pyruvate (1 mM), HEPES {(N-[2-hydroxyethyl]piperazine-N'-[2-ethanesulfonic acid]10 mM}, non-essential amino acids and bovine insulin (1 ug/mL) (maintenance medium). Ten days prior to assay, MCF-7 cells are switched to maintenance medium supplemented with 10% dextran coated charcoal stripped fetal bovine serum (DCC-FBS) assay medium) in place of 10% FBS to deplete internal stores of steroids. MCF-7 cells are removed from maintenance flasks using cell dissociation medium (Ca^++/Mg^++ free HBSS (phenol red-free) supplemented with 10 mM HEPES and 2 mM EDTA). Cells are washed twice with assay medium and adjusted to 80,000 cells/mL. Approximately 100 µL (8,000 cells) are added to flat-bottom microculture wells (Costar 3596) and incubated at 37° C in a 5% CO2 humidified incubator for 48 hours to allow for cell adherence and equilibration after transfer. Serial dilutions of drugs or DMSO as a diluent control are prepared in assay medium and 50 µL transferred to triplicate microcultures followed by 50 µL assay medium for a final volume of 200 µL. […] Samples are counted by liquid scintillation using a Wallac BetaPlace β counter. […]

[4] = system: ovariectomized rats; assay: Uterine weight in ovariectomized rat post-menopausal model, 4-day oral dosing; format: in vivo, Sprague Dawley rats; details: for Increase in Uterine Weight (%): daily for 4 days, versus ovariectomized controls
Experimental: In the examples illustrating the methods, a post-menopausal model was used in which effects of different treatments upon circulating lipids were determined.
as §1, §2

[5] = system: ovariectomized rats; assay: Osteoporosis Test Procedure: femur density in ovariectomized rats, 35-day dosing; format: in vivo, Sprague Dawley rats; details: oral, in 20% hydroxypropyl β-cyclodextrin, daily for 35 days
Text: Seventy-five day old female Sprague Dawley rats (weight range of 200 to 225g) are obtained from Charles River Laboratories (Portage, MI). The animals are either bilaterally ovariectomized (OVX) or exposed to a Sham surgical procedure at Charles River Laboratories, and then shipped after one week. Upon arrival, they are housed in metal hanging cages in groups of 3 or 4 per cage and have ad libitum access to food (calcium content approximately 0.5%) and water for one week. Room temperature is maintained at 22.2° ± 1.7° C with a minimum relative humidity of 40%. The photoperiod in the room is 12 hours light and 12 hours dark. Following the General Preparation Procedure, infra, the rats are treated daily for 35 days (6 rats per treatment group) and sacrificed by carbon dioxide asphyxiation on the 36th day. The 35 day time period is sufficient to allow maximal reduction in bone density, measured as described herein. At the time of sacrifice, the uteri are removed, dissected free of extraneous tissue, and the fluid contents are expelled before determination of wet weight in order to confirm estrogen deficiency associated with complete ovariectomy. […] The right femurs are excised and digitilized x-rays generated and analyzed by an image analysis program (NIH image) at the distal metaphysis. The proximal aspect of the tibiae from these animals are also scanned by quantitative computed tomography. […]

[6] = ovariectomized rats, EE2 at 0.1 mg/kg/day

| Serum Eosinophil (Vmax) ([2]; dose 0.1 mg/kg) | Serum Eosinophil (Vmax) ([2]; dose 1.0 mg/kg) | Serum Eosinophil (Vmax) ([2]; dose 10.0 mg/kg) | pIC50 [3] | Increase in Uterine Weight (%) ([4]; dose 0.1 mg/kg) | Increase in Uterine Weight (%) ([4]; dose 1.0 mg/kg) | Increase in Uterine Weight (%) ([4]; dose 10.0 mg/kg) | Compound | Decrease in Cholesterol (%) ([1]; dose 0.1 mg/kg) | Decrease in Cholesterol (%) ([1]; dose 1.0 mg/kg) | Decrease in Cholesterol (%) ([1]; dose 10.0 mg/kg) | serum cholesterol compared to the ovariectomized animals (in words) [1, 6] | bone loss / reduction in femur density after ovariectomy (in words) [5] | eosinophil infiltration into the uterus (in words) ([2]; stromal layer of ovariectomized rat uteri) | uterine weight compared to the ovariectomized animals (in words) [4, 6] |
| --- | --- | --- | --- | --- | --- | --- | --- | --- | --- | --- | --- | --- | --- | --- |
| 48.0* | 70.5* | 55.8* | 8.00 | 80.3* % | 91.4* % | 80.8* % | O=C(c1ccc(OCCN2CCCCC2)nc1)c1c(-c2ccc(O)cc2)sc2cc(O)ccc12 [Prep. 1, [2-(4-Hydroxyphenyl)-6-hydroxybenzo[b]thien-3-yl][2-[2-(1-piperidinyl)ethoxy]pyridin-5-yl]methanone] | 57.1* % | 66.1* % | 61.7* % | – | – | – | – |
| 211.1* | – | – | – | 182.1* % | – | – | C#C[C@]1(O)CC[C@H]2[C@@H]3CCc4cc(O)ccc4[C@H]3CC[C@@]21C [EE2, 17-a-ethynyl estradiol, reference compound] | 87.4* % | – | – | caused a decrease in serum cholesterol | prevented this loss | substantial and expected increase in eosinophil infiltration | substantially greater than the uterine weight of the ovariectomized animals |
